In patent publication US20020183362A1, “2-Fluorobenzenesulfonyl compounds for the treatment of inflammation” (Pharmacia Corporation, priority 2000, published 2002):
Structures can show the parent of a compound that is named as a salt.

Columns and labels:
Human COX-1 [1] = target: T1, Human COX-1 (Homo sapiens, UniProt P23219); assay: Assay for COX-1 and COX-2 activity (PGE2 ELISA, recombinant enzyme), COX-1; format: biochemical; details: Table I; pre-incubated 10-20 minutes, arachidonic acid 10 μM, stopped after ten minutes, pH 8.0
T1 construct: A 2.0 kb fragment containing the coding region of either human or murine COX-1 or human or murine COX-2; made in house; host or cells: SF9 insect cells (baculovirus, transfer vector pVL1393)
T1 sequence (P23219 24-599): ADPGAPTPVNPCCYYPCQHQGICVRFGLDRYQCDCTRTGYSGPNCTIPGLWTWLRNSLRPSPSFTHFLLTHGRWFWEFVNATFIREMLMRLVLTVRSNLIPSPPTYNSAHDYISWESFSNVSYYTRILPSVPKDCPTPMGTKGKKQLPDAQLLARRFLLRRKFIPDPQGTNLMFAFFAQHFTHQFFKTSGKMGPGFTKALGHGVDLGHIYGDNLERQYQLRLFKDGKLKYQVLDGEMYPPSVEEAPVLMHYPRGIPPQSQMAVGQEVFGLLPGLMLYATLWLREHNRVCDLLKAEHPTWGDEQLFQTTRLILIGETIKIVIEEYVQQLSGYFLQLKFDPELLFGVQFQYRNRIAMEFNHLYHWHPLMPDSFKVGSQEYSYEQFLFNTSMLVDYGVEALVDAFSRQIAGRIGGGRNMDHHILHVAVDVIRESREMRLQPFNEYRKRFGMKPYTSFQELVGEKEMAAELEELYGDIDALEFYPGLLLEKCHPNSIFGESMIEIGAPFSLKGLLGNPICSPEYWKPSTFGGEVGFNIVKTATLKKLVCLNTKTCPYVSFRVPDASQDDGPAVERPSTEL
Procedure: (§1) Recombinant baculoviruses were isolated by transfecting 4 μg of baculovirus transfer vector DNA into SF9 insect cells (2×10^8) along with 200 ng of linearized baculovirus plasmid DNA by the calcium phosphate method. See M. D. Summers and G. E. Smith, A Manual of Methods for Baculovirus Vectors and Insect Cell Culture Procedures, Texas Agric. Exp. Station Bull. […] Recombinant viruses were purified by three rounds of plaque purification and high titer (10^7-10^8 pfu/mL) stocks of virus were prepared. For large scale production, SF9 insect cells were infected in 10 liter fermentors (0.5×10^6/mL) with the recombinant baculovirus stock such that the multiplicity of infection was 0.1. After 72 hours the cells were centrifuged and the cell pellet homogenized in Tris/Sucrose (50 mM: 25%, pH 8.0) containing 1% 3-[(3-cholamidopropyl)dimethylammonio]-1-propanesulfonate (CHAPS). The homogenate was centrifuged at 10,000×G for 30 minutes, and the resultant supernatant was stored at −80° C. before being assayed for COX activity.
COX activity was assayed as PGE2 formed/μg protein/time using an ELISA to detect the prostaglandin released. CHAPS-solubilized insect cell membranes containing the appropriate COX enzyme were incubated in a potassium phosphate buffer (50 mM, pH 8.0) containing epinephrine, phenol, and heme with the addition of arachidonic acid (10 μM). Compounds were pre-incubated with the enzyme for 10-20 minutes prior to the addition of arachidonic acid. […] The PGE2 formed was measured by standard ELISA technology (Cayman Chemical).

Human COX-1 [2] = target: T1, Human COX-1; assay: Fast assay for COX-1 and COX-2 activity (PGE2 ELISA), COX-1; format: biochemical; details: Table II, pre-incubated 10 minutes at 25° C., arachidonic acid 10 μM, stopped after two minutes, pH 7.5
Procedure: as §1
COX activity was assayed as PGE2 formed/μg protein/time using an ELISA to detect the prostaglandin released. CHAPS-solubilized insect cell membranes containing the appropriate COX enzyme were incubated in a potassium phosphate buffer (0.05 M Potassium phosphate, pH 7.5, 2 μM phenol, 1 μM heme, 300 μM epinephrine) with the addition of 20 μl of 100 μM arachidonic acid (10 μM). Compounds were pre-incubated with the enzyme for 10 minutes at 25° C. prior to the addition of arachidonic acid. […] The PGE2 formed was measured by standard ELISA technology (Cayman Chemical).

Human COX-2 [3] = target: T2, Human COX-2 (Homo sapiens, UniProt P35354); assay: Assay for COX-1 and COX-2 activity (PGE2 ELISA, recombinant enzyme), COX-2; format: biochemical; details: Table I; pre-incubated 10-20 minutes, arachidonic acid 10 μM, stopped after ten minutes, pH 8.0
T2 construct: A 2.0 kb fragment containing the coding region of either human or murine COX-1 or human or murine COX-2; made in house; host or cells: SF9 insect cells (baculovirus, transfer vector pVL1393)
T2 sequence (P35354 18-604): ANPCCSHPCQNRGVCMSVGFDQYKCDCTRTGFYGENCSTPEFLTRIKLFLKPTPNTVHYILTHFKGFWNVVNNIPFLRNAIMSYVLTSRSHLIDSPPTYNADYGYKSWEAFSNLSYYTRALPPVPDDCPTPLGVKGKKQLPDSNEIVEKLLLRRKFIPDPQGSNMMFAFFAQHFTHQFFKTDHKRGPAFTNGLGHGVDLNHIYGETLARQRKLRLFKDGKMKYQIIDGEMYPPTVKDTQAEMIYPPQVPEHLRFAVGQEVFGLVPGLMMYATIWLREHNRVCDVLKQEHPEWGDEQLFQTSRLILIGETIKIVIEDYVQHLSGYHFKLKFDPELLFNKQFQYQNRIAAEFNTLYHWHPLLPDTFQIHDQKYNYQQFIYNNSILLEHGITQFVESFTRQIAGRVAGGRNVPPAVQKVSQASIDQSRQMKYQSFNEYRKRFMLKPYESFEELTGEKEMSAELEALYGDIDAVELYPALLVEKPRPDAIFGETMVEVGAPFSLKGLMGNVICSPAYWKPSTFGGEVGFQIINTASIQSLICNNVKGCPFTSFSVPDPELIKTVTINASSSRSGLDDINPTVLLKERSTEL
Procedure: The COX-2 inhibition activity of the compounds of this invention illustrated in the Examples was determined by the following methods.
(§2) Recombinant COX-1 and COX-2 were prepared as described by Gierse et al, [[…]., 305, 479-84 (1995)]. A 2.0 kb fragment containing the coding region of either human or murine COX-1 or human or murine COX-2 was cloned into a BamH1 site of the baculovirus transfer vector pVL1393 (Invitrogen) to generate the baculovirus transfer vectors for COX-1 and COX-2 in a manner similar to the method of D. R. O'Reilly et al (Baculovirus Expression Vectors: A Laboratory Manual (1992)). Recombinant baculoviruses were isolated by transfecting 4 μg of baculovirus transfer vector DNA into SF9 insect cells (2×10^8) along with 200 ng of linearized baculovirus plasmid DNA by the calcium phosphate method. See M. D. Summers and G. E. Smith, A Manual of Methods for Baculovirus Vectors and Insect Cell Culture Procedures, Texas Agric. Exp. Station Bull. 1555 (1987). Recombinant viruses were purified by three rounds of plaque purification and high titer (10^7-10^8 pfu/mL) stocks of virus were prepared. For large scale production, SF9 insect cells were infected in 10 liter fermentors (0.5×10^6/mL) with the recombinant baculovirus stock such that the multiplicity of infection was 0.1. After 72 hours the cells were centrifuged and the cell pellet homogenized in Tris/Sucrose (50 mM: 25%, pH 8.0) containing 1% 3-[(3-cholamidopropyl)dimethylammonio]-1-propanesulfonate (CHAPS). The homogenate was centrifuged at 10,000×G for 30 minutes, and the resultant supernatant was stored at −80° C. before being assayed for COX activity.
COX activity was assayed as PGE2 formed/μg protein/time using an ELISA to detect the prostaglandin released. CHAPS-solubilized insect cell membranes containing the appropriate COX enzyme were incubated in a potassium phosphate buffer (50 mM, pH 8.0) containing epinephrine, phenol, and heme with the addition of arachidonic acid (10 μM). Compounds were pre-incubated with the enzyme for 10-20 minutes prior to the addition of arachidonic acid. Any reaction between the arachidonic acid and the enzyme was stopped after ten minutes at 37° C./room temperature by transferring 40 μl of reaction mix into […] and 25 μM indomethacin. The PGE2 formed was measured by standard ELISA technology (Cayman Chemical).

Human COX-2 [4] = target: T2, Human COX-2; assay: Fast assay for COX-1 and COX-2 activity (PGE2 ELISA), COX-2; format: biochemical; details: Table II, pre-incubated 10 minutes at 25° C., arachidonic acid 10 μM, stopped after two minutes, pH 7.5
Procedure: as §2
COX activity was assayed as PGE2 formed/μg protein/time using an ELISA to detect the prostaglandin released. CHAPS-solubilized insect cell membranes containing the appropriate COX enzyme were incubated in a potassium phosphate buffer (0.05 M Potassium phosphate, pH 7.5, 2 μM phenol, 1 μM heme, 300 μM epinephrine) with the addition of 20 μl of 100 μM arachidonic acid (10 μM). Compounds were pre-incubated with the enzyme for 10 minutes at 25° C. prior to the addition of arachidonic acid. Any reaction between the arachidonic acid and the enzyme was stopped after two minutes at 37° C./room temperature by transferring 40 μl of reaction mix into 160 μl ELISA buffer and 25 μM indomethacin. The PGE2 formed was measured by standard ELISA technology (Cayman Chemical).

| Compound | melting point | IC50 (Human COX-1 [1]) | IC50 (Human COX-1 [2]) | IC50 (Human COX-2 [3]) | IC50 (Human COX-2 [4]) |
| --- | --- | --- | --- | --- | --- |
| CS(=O)(=O)c1ccc(-c2cc(C(F)F)nn2-c2cccc(C(F)(F)F)c2)cc1F [Example 21] | – | > 100 µM | > 100 µM | 550 nM | 290 nM |
| CS(=O)(=O)c1ccc(-c2cc(C(F)F)nn2-c2ccc(F)cc2)cc1F [Example 18, 3-(Difluoromethyl)-5-[3-fluoro-4-(methylsulfonyl)phenyl]-1-(4-fluorophenyl)-1H-pyrazole] | – | > 100 µM | > 100 µM | 320 nM | 310 nM |
| CS(=O)(=O)c1ccc(-c2cc(C(F)(F)F)nn2-c2cccc(C(F)(F)F)c2)cc1F [Example 13, 5-[3-Fluoro-4-(methylsulfonyl)phenyl]-3-(trifluoromethyl)-1-[3-(trifluoromethyl)phenyl]-1H-pyrazole] | – | > 100 µM | > 100 µM | 180 nM | 150 nM |
| Cc1onc(-c2ccccc2)c1-c1ccc(S(N)(=O)=O)c(F)c1 [Example 23] | 180 to 182 °C | – | – | – | – |
| COc1ccc(-c2cc(C(F)(F)F)nn2-c2ccc(S(N)(=O)=O)c(F)c2)cc1 [Example 7, 2-Fluoro-4-[5-(4-methoxyphenyl)-3-(trifluoromethyl)-1H-pyrazol-1-yl]benzenesulfonamide] | – | – | – | 5 nM | 4 nM |
| CS(=O)(=O)c1ccc(-c2cc(C(F)F)nn2-c2cccc(C(F)(F)F)c2)cc1F (as salt: trifluoroacetate) [Example 21] | 110 to 111 °C | – | – | – | – |
| Cc1ccc(-n2nc(C(F)F)cc2-c2ccc(S(C)(=O)=O)c(F)c2)cc1Cl (as salt: trifluoroacetate) [Example 20, 1-(3-Chloro-4-methylphenyl)-3-(difluoromethyl)-5-[3-fluoro-4-(methylsulfonyl)phenyl]-1H-pyrazole] | 146 to 147 °C | – | – | – | – |
| CS(=O)(=O)c1ccc(-c2cc(C(F)F)nn2-c2ccc(F)cc2)cc1F (as salt: trifluoroacetate) [Example 18, 3-(Difluoromethyl)-5-[3-fluoro-4-(methylsulfonyl)phenyl]-1-(4-fluorophenyl)-1H-pyrazole] | 201 to 202 °C | – | – | – | – |
| CS(=O)(=O)c1ccc(-c2cc(C(F)F)nn2C2CCCCC2)cc1F (as salt: trifluoroacetate) [Example 19, 1-Cyclohexyl-3-(difluoromethyl)-5-[3-fluoro-4-(methylsulfonyl)phenyl]-1H-pyrazole] | 138 to 139 °C | – | – | – | – |

The next lines start with the values.

| melting point | IC50 (Human COX-1 [1]) | IC50 (Human COX-1 [2]) | IC50 (Human COX-2 [3]) | IC50 (Human COX-2 [4]) | Compound |
| --- | --- | --- | --- | --- | --- |
| 124 to 126 °C | – | – | – | – | COc1ccc(-c2cc(C(F)(F)F)nn2-c2ccc(S(N)(=O)=O)c(F)c2)cc1F (as salt: trifluoroacetate) [Example 6, 4-[5-(3-Fluoro-4-methoxy)-3-trifluoromethyl-1H-pyrazol-1-yl]-2-fluorobenzenesulfonamide] |
| 140 to 141 °C | – | – | – | – | NS(=O)(=O)c1ccc(-n2nc(C(F)(F)F)cc2-c2ccc(Cl)cc2)cc1F (as salt: trifluoroacetate) [Example 5, 4-[5-(4-Chlorophenyl)-3-trifluoromethyl-1H-pyrazol-1-yl]-2-fluorobenzenesulfonamide] |
| – | > 100 µM | > 100 µM | 250 nM | 180 nM | COc1ccccc1-c1cc(C(F)(F)F)nn1-c1ccc(S(N)(=O)=O)c(F)c1 [Example 9, 2-Fluoro-4-[5-(2-methoxyphenyl)-3-(trifluoromethyl)-1H-pyrazol-1-yl]benzenesulfonamide] |
| – | 40.5 µM | 20.3 µM | 19 nM | 6 nM | Cc1ccc(-c2cc(C(F)(F)F)nn2-c2ccc(S(N)(=O)=O)c(F)c2)cc1 [Example 4, 4-[5-(4-Methylphenyl)-3-(trifluoromethyl)-1H-pyrazol-1-yl]-2-fluorobenzenesulfonamide] |
| 126 to 128 °C | – | – | – | – | Cc1ccc(-c2cc(C(F)(F)F)nn2-c2ccc(S(N)(=O)=O)c(F)c2)cc1 (as salt: trifluoroacetate) [Example 4, 4-[5-(4-Methylphenyl)-3-(trifluoromethyl)-1H-pyrazol-1-yl]-2-fluorobenzenesulfonamide] |
| – | 45.6 µM | > 100 µM | 25 nM | 18 nM | COc1ccc(-c2cc(C(F)(F)F)nn2-c2ccc(S(N)(=O)=O)c(F)c2)cc1F [Example 6, 4-[5-(3-Fluoro-4-methoxy)-3-trifluoromethyl-1H-pyrazol-1-yl]-2-fluorobenzenesulfonamide] |
| 127 to 130 °C | – | – | – | – | NS(=O)(=O)c1ccc(-n2nc(C(F)(F)F)cc2-c2ccc(F)cc2)cc1F (as salt: trifluoroacetate) [Example 8, 2-Fluoro-4-[5-(4-fluorophenyl)-3-(trifluoromethyl)-1H-pyrazol-1-yl]benzenesulfonamide] |
| 159 to 160 °C | – | – | – | – | COc1ccccc1-c1cc(C(F)(F)F)nn1-c1ccc(S(N)(=O)=O)c(F)c1 (as salt: trifluoroacetate) [Example 9, 2-Fluoro-4-[5-(2-methoxyphenyl)-3-(trifluoromethyl)-1H-pyrazol-1-yl]benzenesulfonamide] |
| 167 to 169 °C | > 100 µM | – | 110 nM | – | COc1ccc(-c2cc(C(F)F)nn2-c2ccc(S(N)(=O)=O)c(F)c2)cc1F [Example 10, 4-[3-(Difluoromethyl)-5-(3-fluoro-4-methoxyphenyl)-1H-pyrazol-1-yl]-2-fluorobenzenesulfonamide] |
